Measured values published in paper PMC5349447, “Applying a high-throughput fluorescence polarization assay for the discovery of chemical probes blocking La:RNA interactions in vitro and in cells” (PLoS ONE, 2017).
Entries after “also recorded” stand apart in the source; their conditions may differ.

How the values were obtained:
[1] = system: T1, La-WT:fD1-RNA complex; test: EMSA, compound competition, La-WT:fD1; assay type: binding, human; details: La-WT 60 nM, fD1 50 nM
T1 construct: His; made in house; host or cells: E. coli BL21
Protocol: (§1) 12% native TBE polyacrylamide gels were prepared in a Mini-PROTEAN Tetra Handcast System (BioRad). The gel was pre-run for 30 min at 140 V in 1x TBE buffer (45 mM Tris/HCl pH 8.5, 45 mM boric acid, 1 mM EDTA). To prepare the RNA-mix, fluorescence labeled RNA oligoribonucleotides (oligos) were diluted in fluorescence polarization buffer (20 mM Tris/HCl (pH 7.4), 150 mM NaCl, 3.0 mM MgCl2, 0.5 mM EDTA, 0.05% (v/v) IGEPAL), mixed for 10 min at 80°C, and then immediately placed on ice for at least 5 min. All RNA oligos were used at a final concentration of 50 nM. Recombinant La protein was diluted in D-buffer (20 mM Tris/ HCl (pH 7.4), 150mM NaCl, 3mM MgCl2, 0.5mM EDTA, 5% glycerol) and placed on ice until use.
La titration was performed at final concentrations of 20, 40, 60, 100, 200, 300, 400, 500, 600 nM La. Three different La concentrations were used for compound studies: 60 nM for fD1 RNA, 200 nM for fPolyU RNA, and 150 nM for TOPf RNA studies. Two μl of diluted compound (diluted in 100% DMSO) or 2 μl 100% DMSO (control reaction) was combined with 8 μl La-mix in a 96-well plate. 10 μl RNA-mix was added, mixed for 2 min, and incubated for 10 min at RT in the dark. Final concentrations in the reaction: 18 mM Tris/HCl (pH 7.4), 135 mM NaCl, 2.7 mM MgCl2, 0.45 mM EDTA, 0.025% (v/v) IGEPAL, 2% glycerol, 10% DMSO). Samples were loaded onto the pre-run gel without any loading buffer. Gels were run at 160 V for 40 min in the dark. The gels were carefully transferred to a clear plastic wrap and scanned using a Typhoon FLA900 imager. The La-RNA complex (La-RNP) formation was quantified using the ImageQuant TL software.
Next we used our established EMSA to test whether compound C2 and C6 can compete against the three RNA oligos: fD1, fPolyU, and TOPf. All of the EMSA reactions were loaded in the following order: lane 1 contains the RNA oligo alone; lane 2 contains the RNA oligo plus La protein at concentration that shifts 50% of the RNA oligo (positive control); lanes 3–9 contain the RNA oligo, La protein and decreasing concentrations of the compound; and lane 10 contains the RNA oligo and the highest compound concentration (negative control).

[2] = system: La-RRM1+2:fD1 complex; test: EMSA, compound competition, La-RRM1+2:fD1; assay type: binding, human; details: La-RRM1+2 60 nM, fD1 50 nM
Protocol: as §1
La titration was performed at final concentrations of 20, 40, 60, 100, 200, 300, 400, 500, 600 nM La. Three different La concentrations were used for compound studies: 60 nM for fD1 RNA, 200 nM for fPolyU RNA, and 150 nM for TOPf RNA studies. Two μl of diluted compound (diluted in 100% DMSO) or 2 μl 100% DMSO (control reaction) was combined with 8 μl La-mix in a 96-well plate. 10 μl RNA-mix was added, mixed for 2 min, and incubated for 10 min at RT in the dark. […] The La-RNA complex (La-RNP) formation was quantified using the ImageQuant TL software. […]

[3] = system: SCC 22B cells; test: Cell toxicity, CyQUANT cell number, SCC 22B; assay type: cell-based, human; details: for effect on SCC 22B cell numbers: 12.5-150 μM
Protocol: (§2) Normal fibroblast MRC5 and human embryonic kidney HEK293 cells were purchased from ATCC. Head and neck squamous cell carcinoma cell lines UM-SCC 22A (SCC 22A) and UM-SCC 22B (SCC 22B) were described elsewhere. MRC5 cells were cultured in EMEM plus 10% FBS; SCC 22A, SCC 22B, and HEK293 cells were cultured in advanced DMEM (Gibco) containing 2 mM L-glutamine (Life Technology) and 10% FBS. All cell lines were tested for mycoplasma contamination by applying a MycoSensor PCR Assay kit according to the manufacturer’s instructions (Agilent Technologies).
(§3) To test for cell toxicity the compounds were dissolved in 100% DMSO to a concentration of 100 mM. Subsequently, compounds were diluted in media to 10 mM (10% DMSO), 1 mM (1% DMSO) and tested at 150, 125, 100, 75, 50, 25 μM in SCC 22B and MRC5 cells. To reach this concentration compounds (stock 1 mM, 1% DMSO) were diluted in the cell culture dish (96-well format, 100 μl final volume) as follows: 150 μM = 6.7 fold (final DMSO: 0.15%); 125 μM = 8.0 fold (final DMSO: 0.125%); 100 μM = 10 fold (final DMSO: 0.1%); 75 μM = 13.3 fold (final DMSO: 0.075%); 50 μM = 20 fold (final DMSO: 0.05%); and 25 μM = 40 fold (final DMSO: 0.025%). As a control the highest DMSO concentration of 0.15% was used. Cells were cultured in appropriate media (see above) for 48h. Subsequently, cells were washed twice with 1x PBS and quantified after staining with fluorescence dye (CyQUANT®, Life Technologies). For this experiments 3x10^4 of MRC5 and 1x10^4 SCC 22B cells were plate the day before the experiment.

[4] = system: MRC5 cells; test: Cell toxicity, CyQUANT cell number, MRC5; assay type: cell-based, human; details: 48 h, up to 150 μM
Protocol: as §2, §3

| SMILES | concentration impairing La:fD1 complex formation (EMSA) ([1]; highest concentration tested) | concentration blocking La-RRM1+2:fD1 complex formation (EMSA) [2] | effect on SCC 22B cell numbers ([3]; 48 h) | toxic effect on MRC5 cells (normal fibroblasts) [4] | competition for La:fD1 interaction (EMSA), in words [1] | tolerance by SCC 22B cells ([3]; 50 μM, 48 hours) | cytotoxic concentration in SCC 22B cells ([3]; 48 h) | selectivity: cancer cell numbers compared to effect on normal MRC5 cells ([3]; SCC 22B versus MRC5, 48 h) | concentration inhibiting La:fD1 complex formation (EMSA) [1] |
| --- | --- | --- | --- | --- | --- | --- | --- | --- | --- |
| O=C(O)c1ccccc1C(=O)c1ccc(O)cc1O [C2, 2-(2,4-dihydroxybenzoyl)benzoic acid] | 10 mM | 5 mM | no effect | no toxic effect |  |  |  |  |  |
| Cc1ccc(C(=O)c2ccccc2C(=O)O)c(O)c1 [C2.01, 2-(2-hydroxy-4-methylbenzoyl)benzoic acid] |  |  |  | no toxic effect | lower concentration; also recorded: weak competitor | well tolerated | higher than 50 μM | preferentially reduced cancer cell numbers |  |
| CCOC(=O)c1ccc2c(c1)C1C=CCC1C(C(=O)O)N2 (stereo not shown) [C6, 8-(ethoxycarbonyl)-3a,4,5,9b-tetrahydro-3Hcyclopenta[c]quinoline-4-carboxylic acid] |  | 0.01 mM | reduced SCC 22B cell numbers even at low concentrations | toxic effect |  |  |  |  | 10 µM |
